Results reported in patent US9663496B2, “AMPK-activating heterocyclic compounds and methods for using the same” (Rigel Pharmaceuticals, Inc., priority 2010, dated 2017).

What follows are compounds tested against AMPK (assay: AMPK activation, enzyme-linked immunosorbent assay). Conditions: EC50 for AMPK activation, ELISA.
Assay type: biochemical
Summary of the method: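 Activation by each compound is measured using a conventional commercial immunoassay kit.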

EC50 [nM] | SMILES
< 500 | COc1ccc(C(=O)C2CCN(C(=O)c3ccc(C(=O)NCCOc4ccc(F)cc4)nc3)CC2)cc1 [Compound 305, N-(2-(4-fluorophenoxy)ethyl)-5-(4-(4-methoxybenzoyl)piperidine-1-carbonyl)picolinamide]
< 500 | N#Cc1ccc(OC2CCN(C(=O)c3ccc(C(=O)NCCOc4ccc(F)cc4)nc3)CC2)cc1 [Compound 306, 5-(4-(4-cyanophenoxy)piperidine-1-carbonyl)-N-(2-(4-fluorophenoxy)ethyl)picolinamide]
500 to 1000 | N#Cc1ccc(CN2CCC(NC(=O)c3ccc(C(=O)N4CC(OCc5ccc(F)cc5)C4)cn3)CC2)cc1 [Compound 307, N-(1-(4-cyanobenzyl)piperidin-4-yl)-5-(3-(4-fluorobenzyloxy)azetidine-1-carbonyl)picolinamide]
< 500 | O=C(NC1CCN(Cc2cc(F)cc(F)c2)CC1)c1ccc(C(=O)N2CC(OCc3ccc(F)cc3)C2)cn1 [Compound 308, N-(1-(3,5-difluorobenzyl)piperidin-4-yl)-5-(3-(4-fluorobenzyloxy)azetidine-1-carbonyl)picolinamide]
< 500 | COc1ccc(C(=O)C2CCN(C(=O)c3ccc(C(=O)NC4CCN(Cc5ccc(C#N)cc5)CC4)cn3)CC2)cc1 [Compound 309, N-(1-(4-cyanobenzyl)piperidin-4-yl)-6-(4-(4-methoxybenzoyl)piperidine-1-carbonyl)nicotinamide]
< 500 | COc1ccc(C(=O)C2CCN(C(=O)c3ccc(C(=O)N[C@H]4CC[C@@H](Oc5ccc(F)cc5)CC4)nc3)CC2)cc1 [Compound 311, N-((cis)-4-(4-fluorophenoxy)cyclohexyl)-5-(4-(4-methoxybenzoyl)piperidine-1-carbonyl)picolinamide]
< 500 | O=C(N[C@H]1CC[C@@H](Oc2ccc(F)cc2)CC1)c1ccc(C(=O)N2CCC(Oc3ccc(F)cc3)CC2)cn1 [Compound 312, N-((cis)-4-(4-fluorophenoxy)cyclohexyl)-5-(4-(4-fluorophenoxy)piperidine-1-carbonyl)picolinamide]
< 500 | N#Cc1ccc(OC2CN(C(=O)c3ccc(C(=O)NC4CCN(Cc5cc(F)cc(F)c5)CC4)nc3)C2)cc1 [Compound 313, 5-(3-(4-cyanophenoxy)azetidine-1-carbonyl)-N-(1-(3,5-difluorobenzyl)piperidin-4-yl)picolinamide]
> 10000 | N#Cc1ccc(-c2nnc3n2CCN(C(=O)c2ccc(C(=O)NC4CCN(Cc5cc(F)cc(F)c5)CC4)nc2)C3)cc1 [Compound 314, 5-(3-(4-cyanophenyl)-5,6,7,8-tetrahydro-[1,2,4]triazolo[4,3-a]pyrazine-7-carbonyl)-N-(1-(3,5-difluorobenzyl)piperidin-4-yl)picolinamide]
< 500 | COc1ccc(C(=O)C2CCN(C(=O)c3ccc(C(=O)NC4CCC(Oc5ccc(C#N)cc5)CC4)cn3)CC2)cc1 (stereo not shown) [Compound 315, N-((1s,4s)-4-(4-cyanophenoxy)cyclohexyl)-6-(4-(4-methoxybenzoyl)piperidine-1-carbonyl)nicotinamide]
< 500 | COc1ccc(C(=O)C2CCN(C(=O)c3ccc(C(=O)N[C@H]4CC[C@@H](Oc5ccc(F)cc5)CC4)cn3)CC2)cc1 [Compound 316, N-((cis)-4-(4-fluorophenoxy)cyclohexyl)-6-(4-(4-methoxybenzoyl)piperidine-1-carbonyl)nicotinamide]
< 500 | COc1ccc(C(=O)C2CCN(C(=O)c3ccc(C(=O)NC4CCN(Cc5ccc(F)cc5)CC4)cn3)CC2)cc1 [Compound 317, N-(1-(4-fluorobenzyl)piperidin-4-yl)-6-(4-(4-methoxybenzoyl)piperidine-1-carbonyl)nicotinamide]
< 500 | COc1ccc(CN2CCC(NC(=O)c3ccc(C(=O)N4CCC(C(=O)c5ccc(OC)cc5)CC4)nc3)CC2)cc1 [Compound 318, 6-(4-(4-methoxybenzoyl)piperidine-1-carbonyl)-N-(1-(4-methoxybenzyl)piperidin-4-yl)nicotinamide]
< 500 | COc1ccc(CN2CCC(NC(=O)c3ccc(C(=O)N4CCC(Oc5ccc(C#N)cc5)CC4)nc3)CC2)cc1 [Compound 319, 6-(4-(4-cyanophenoxy)piperidine-1-carbonyl)-N-(1-(4-methoxybenzyl)piperidin-4-yl)nicotinamide]
< 500 | N#Cc1ccc(OC2CCN(C(=O)c3ccc(C(=O)N[C@H]4CC[C@@H](Oc5ccc(C#N)cc5)CC4)cn3)CC2)cc1 [Compound 321, N-((cis)-4-(4-cyanophenoxy)cyclohexyl)-6-(4-(4-cyanophenoxy)piperidine-1-carbonyl)nicotinamide]
< 500 | N#Cc1ccc(OC2CCN(C(=O)c3ccc(C(=O)NC4CCN(Cc5cc(F)cc(F)c5)CC4)cn3)CC2)cc1 [Compound 322, 6-(4-(4-cyanophenoxy)piperidine-1-carbonyl)-N-(1-(3,5-difluorobenzyl)piperidin-4-yl)nicotinamide]
< 500 | N#Cc1ccc(CN2CCC(NC(=O)c3ccc(C(=O)N4CCC(Oc5ccc(C#N)cc5)CC4)nc3)CC2)cc1 [Compound 323, N-(1-(4-cyanobenzyl)piperidin-4-yl)-6-(4-(4-cyanophenoxy)piperidine-1-carbonyl)nicotinamide]

EC50 [nM] | SMILES
< 500 | N#Cc1ccc(OC2CCN(C(=O)c3ccc(C(=O)N[C@H]4CC[C@@H](Oc5ccc(F)cc5)CC4)cn3)CC2)cc1 [Compound 324, 6-(4-(4-cyanophenoxy)piperidine-1-carbonyl)-N-((cis)-4-(4-fluorophenoxy)cyclohexyl)nicotinamide]
< 500 | COc1ccc(C(=O)C2CCN(C(=O)c3ccc(C(=O)Nc4ccc(Oc5ccc(F)cc5)nc4)cn3)CC2)cc1 [Compound 325, N-(6-(4-fluorophenoxy)pyridin-3-yl)-6-(4-(4-methoxybenzoyl)piperidine-1-carbonyl)nicotinamide]
< 500 | N#Cc1ccc(OC2CCN(C(=O)c3ccc(C(=O)Nc4ccc(Oc5ccc(F)cc5)nc4)cn3)CC2)cc1 [Compound 326, 6-(4-(4-cyanophenoxy)piperidine-1-carbonyl)-N-(6-(4-fluorophenoxy)pyridin-3-yl)nicotinamide]
< 500 | COc1ccc(CN2CCC(NC(=O)c3ccc(C(=O)N4CCN(Cc5ccc(F)cc5)CC4)nc3)CC2)cc1 [Compound 327, 6-(4-(4-fluorobenzyl)piperazine-1-carbonyl)-N-(1-(4-methoxybenzyl)piperidin-4-yl)nicotinamide]
< 500 | O=C(NC1CCN(Cc2ccc(F)cc2)CC1)c1ccc(C(=O)N2CCN(Cc3ccc(F)cc3)CC2)nc1 [Compound 328, 6-(4-(4-fluorobenzyl)piperazine-1-carbonyl)-N-(1-(4-fluorobenzyl)piperidin-4-yl)nicotinamide]
< 500 | COc1ccc(CN2CCC(NC(=O)c3ccc(C(=O)N4CCC(C(=O)c5ccc(F)c(F)c5)CC4)cn3)CC2)cc1 [Compound 329, 5-(4-(3,4-difluorobenzoyl)piperidine-1-carbonyl)-N-(1-(4-methoxybenzyl)piperidin-4-yl)picolinamide]
500 to 1000 | O=C(Nc1ccc(Oc2ccc(F)cc2)nc1)c1ccc(C(=O)N2CCC(C(=O)c3ccc(F)c(F)c3)CC2)cn1 [Compound 330, 5-(4-(3,4-difluorobenzoyl)piperidine-1-carbonyl)-N-(6-(4-fluorophenoxy)pyridin-3-yl)picolinamide]
< 500 | COc1ccc(CN2CCC(NC(=O)c3ccc(C(=O)N4CCC(C(=O)c5ccc(F)cc5F)CC4)cn3)CC2)cc1 [Compound 331, 5-(4-(2,4-difluorobenzoyl)piperidine-1-carbonyl)-N-(1-(4-methoxybenzyl)piperidin-4-yl)picolinamide]
< 500 | N#Cc1ccc(O[C@H]2CC[C@@H](NC(=O)c3ccc(C(=O)N4CCN(Cc5ccc(F)cc5)CC4)nc3)CC2)cc1 [Compound 332, N-((cis)-4-(4-cyanophenoxy)cyclohexyl)-6-(4-(4-fluorobenzyl)piperazine-1-carbonyl)nicotinamide]
< 500 | CC(C)(C)OC(=O)N1CCC(NC(=O)c2ccc(C(=O)N3CCC(Oc4ccc(C#N)cc4)CC3)nc2)CC1 [Compound 333, tert-butyl 4-(6-(4-(4-cyanophenoxy)piperidine-1-carbonyl)nicotinamido)piperidine-1-carboxylate]
< 500 | O=C(Nc1ccc(Oc2ccc(F)cc2)nc1)c1ccc(C(=O)N2CCN(Cc3ccc(F)cc3)CC2)nc1 [Compound 334, 6-(4-(4-fluorobenzyl)piperazine-1-carbonyl)-N-(6-(4-fluorophenoxy)pyridin-3-yl)nicotinamide]
> 10000 | N#Cc1ccc(OC2CCN(C(=O)c3ccc(C(=O)NC4CCNCC4)cn3)CC2)cc1 [Compound 335, 6-(4-(4-cyanophenoxy)piperidine-1-carbonyl)-N-(piperidin-4-yl)nicotinamide]
< 500 | N#Cc1ccc(OC2CCN(C(=O)c3ccc(C(=O)NC4CCN(Cc5ccc(N6CCCC6)cc5)CC4)cn3)CC2)cc1 [Compound 336, 6-(4-(4-cyanophenoxy)piperidine-1-carbonyl)-N-(1-(4-(pyrrolidin-1-yl)benzyl)piperidin-4-yl)nicotinamide]
< 500 | N#Cc1ccc(OC2CCN(C(=O)c3ccc(C(=O)NC4CCN(Cc5ccc(N6CCOCC6)cc5)CC4)cn3)CC2)cc1 [Compound 337, 6-(4-(4-cyanophenoxy)piperidine-1-carbonyl)-N-(1-(4-morpholinobenzyl)piperidin-4-yl)nicotinamide]
< 500 | N#Cc1ccc(CN2CCC(NC(=O)c3ccc(C(=O)N4CCN(c5ccc(C(F)(F)F)cc5)CC4)cn3)CC2)cc1 [Compound 339, N-(1-(4-cyanobenzyl)piperidin-4-yl)-5-(4-(4-(trifluoromethyl)phenyl)piperazine-1-carbonyl)picolinamide]
< 500 | N#Cc1ccc(CN2CCC(NC(=O)c3ccc(C(=O)N4CCN(c5ccc(C#N)cc5)CC4)cn3)CC2)cc1 [Compound 340, N-(1-(4-cyanobenzyl)piperidin-4-yl)-5-(4-(4-cyanophenyl)piperazine-1-carbonyl)picolinamide]
< 500 | N#Cc1ccc(CN2CCC(NC(=O)c3ccc(C(=O)N4CCN(c5ccc(F)cc5)CC4)cn3)CC2)cc1 [Compound 341, N-(1-(4-cyanobenzyl)piperidin-4-yl)-5-(4-(4-fluorophenyl)piperazine-1-carbonyl)picolinamide]
